Usually melting point stands for the temperature, or range, at which the solid turns liquid. `Cc1cc(CC(C(=O)NCc2ccc3occc3c2)C(=O)N(CC(C)C)CC(C)C)n(C)n1` (stereo not shown) [Cmpd. 9] came in with a melting point of 85.5 to 86 °C.

These data come from patent US9540354B2, “Diamide inhibitors of cytochrome P450” (SEQUOIA PHARMACEUTICALS, INC., priority 2008, dated 2017).
